Results taken from PMC3254785 (2011).

Legend:
[1] = molecular target: T1, soluble guanylyl cyclase (sGC) (Homo sapiens, UniProt Q02153); experiment: anaerobic; assay type: binding
T1 sequence (Q02153 1-619): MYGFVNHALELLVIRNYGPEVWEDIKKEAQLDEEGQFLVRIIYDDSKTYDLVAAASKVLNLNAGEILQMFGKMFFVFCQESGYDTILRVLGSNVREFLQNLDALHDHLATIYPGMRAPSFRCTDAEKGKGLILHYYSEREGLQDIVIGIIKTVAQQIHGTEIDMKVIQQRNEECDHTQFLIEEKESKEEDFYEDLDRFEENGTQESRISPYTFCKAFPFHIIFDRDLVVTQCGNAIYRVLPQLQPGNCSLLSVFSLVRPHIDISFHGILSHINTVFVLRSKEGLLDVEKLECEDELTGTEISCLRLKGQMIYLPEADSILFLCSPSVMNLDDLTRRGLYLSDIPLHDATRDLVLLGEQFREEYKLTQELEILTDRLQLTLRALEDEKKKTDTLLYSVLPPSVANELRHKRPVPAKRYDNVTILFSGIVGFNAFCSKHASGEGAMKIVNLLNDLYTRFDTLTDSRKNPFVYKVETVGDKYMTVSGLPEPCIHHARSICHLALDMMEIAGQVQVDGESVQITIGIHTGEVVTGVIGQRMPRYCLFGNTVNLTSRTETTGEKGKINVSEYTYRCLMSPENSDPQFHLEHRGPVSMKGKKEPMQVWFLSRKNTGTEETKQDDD
T1 sequence (Q02108 1-690 partner): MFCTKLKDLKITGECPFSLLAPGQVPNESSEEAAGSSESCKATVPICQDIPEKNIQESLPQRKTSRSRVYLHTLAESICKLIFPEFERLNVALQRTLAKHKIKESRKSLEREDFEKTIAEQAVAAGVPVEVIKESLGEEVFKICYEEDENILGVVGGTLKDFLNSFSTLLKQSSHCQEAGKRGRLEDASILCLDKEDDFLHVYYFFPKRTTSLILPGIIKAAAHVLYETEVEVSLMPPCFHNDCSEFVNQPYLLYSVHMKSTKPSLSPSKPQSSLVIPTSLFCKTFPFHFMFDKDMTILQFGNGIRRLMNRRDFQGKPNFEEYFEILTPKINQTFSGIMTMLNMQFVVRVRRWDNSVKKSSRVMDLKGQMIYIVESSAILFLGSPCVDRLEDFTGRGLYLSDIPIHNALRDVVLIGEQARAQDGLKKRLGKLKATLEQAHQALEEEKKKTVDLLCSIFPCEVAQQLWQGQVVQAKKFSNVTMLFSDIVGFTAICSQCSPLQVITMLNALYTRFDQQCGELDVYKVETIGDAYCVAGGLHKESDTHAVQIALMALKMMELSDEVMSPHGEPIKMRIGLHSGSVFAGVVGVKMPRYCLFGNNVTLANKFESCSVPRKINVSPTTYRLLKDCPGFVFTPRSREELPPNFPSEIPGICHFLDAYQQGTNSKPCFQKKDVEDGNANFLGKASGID

Ns H-NOX = Ns H-NOX (Nostoc sp. PCC 7120 = FACHB-418, UniProt A0ACD6B960); experiment: biochemical
Ns H-NOX, sequence (A0ACD6B960 1-189): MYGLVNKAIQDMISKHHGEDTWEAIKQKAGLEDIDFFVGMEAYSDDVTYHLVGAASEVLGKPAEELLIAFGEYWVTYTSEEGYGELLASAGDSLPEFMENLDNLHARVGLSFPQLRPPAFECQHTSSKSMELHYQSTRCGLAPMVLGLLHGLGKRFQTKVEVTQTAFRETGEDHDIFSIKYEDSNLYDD

Kd (Ns H-NOX) [mM] | SMILES | Kd [1] [nM]
– | [N]=O [NO] | 54
13 | O=O [O2] | –
